Activity calls are given as the source filed them. No cut-off for these calls is given here.

What all share (format): protein assay
The target in test [1] is T1, Alpha-1,2-mannosidase (BT_2111) (Bacteroides thetaiotaomicron) (UniProt Q8A5X5).
T1 sequence (whole entry): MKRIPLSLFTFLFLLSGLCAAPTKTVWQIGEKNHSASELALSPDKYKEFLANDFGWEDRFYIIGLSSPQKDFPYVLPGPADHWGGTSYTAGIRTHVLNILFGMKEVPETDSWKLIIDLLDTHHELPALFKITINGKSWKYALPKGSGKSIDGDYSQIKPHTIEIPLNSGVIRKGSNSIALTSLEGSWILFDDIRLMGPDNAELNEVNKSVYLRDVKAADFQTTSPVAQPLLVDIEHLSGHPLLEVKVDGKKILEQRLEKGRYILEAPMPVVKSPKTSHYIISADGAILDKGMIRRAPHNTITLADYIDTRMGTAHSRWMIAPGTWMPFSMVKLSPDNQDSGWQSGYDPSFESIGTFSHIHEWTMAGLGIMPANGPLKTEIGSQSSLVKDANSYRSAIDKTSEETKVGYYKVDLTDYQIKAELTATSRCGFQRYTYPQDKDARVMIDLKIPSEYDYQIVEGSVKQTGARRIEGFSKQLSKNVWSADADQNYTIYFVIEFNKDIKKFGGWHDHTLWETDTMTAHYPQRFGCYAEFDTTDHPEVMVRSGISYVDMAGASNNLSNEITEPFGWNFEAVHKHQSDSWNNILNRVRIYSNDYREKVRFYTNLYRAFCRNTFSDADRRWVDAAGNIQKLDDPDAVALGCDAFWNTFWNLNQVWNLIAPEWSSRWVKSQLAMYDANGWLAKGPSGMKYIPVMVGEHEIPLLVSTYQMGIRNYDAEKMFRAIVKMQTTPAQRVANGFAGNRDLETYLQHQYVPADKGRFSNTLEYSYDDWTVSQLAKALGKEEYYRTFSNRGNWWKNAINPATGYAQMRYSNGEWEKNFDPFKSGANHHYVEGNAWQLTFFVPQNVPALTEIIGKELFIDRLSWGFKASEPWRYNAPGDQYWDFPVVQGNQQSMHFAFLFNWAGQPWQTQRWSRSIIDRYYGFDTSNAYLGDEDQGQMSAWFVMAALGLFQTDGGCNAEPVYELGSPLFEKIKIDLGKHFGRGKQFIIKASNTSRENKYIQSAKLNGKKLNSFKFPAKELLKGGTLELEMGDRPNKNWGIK
Nature of the test: Activity of Bacteroides thetaiotaomicron GH92 alpha-mannosidase GH92 alpha-mannosidase 2111 assessed as mannose release at 1 mM after 16 hrs by HPLC relative to untreated control after 16 hrs by HPLC.

Test [2] deals with T2, Alpha-1,2-mannosidase (BT_3784) (Bacteroides thetaiotaomicron) (UniProt Q8A182).
T2 sequence (whole entry): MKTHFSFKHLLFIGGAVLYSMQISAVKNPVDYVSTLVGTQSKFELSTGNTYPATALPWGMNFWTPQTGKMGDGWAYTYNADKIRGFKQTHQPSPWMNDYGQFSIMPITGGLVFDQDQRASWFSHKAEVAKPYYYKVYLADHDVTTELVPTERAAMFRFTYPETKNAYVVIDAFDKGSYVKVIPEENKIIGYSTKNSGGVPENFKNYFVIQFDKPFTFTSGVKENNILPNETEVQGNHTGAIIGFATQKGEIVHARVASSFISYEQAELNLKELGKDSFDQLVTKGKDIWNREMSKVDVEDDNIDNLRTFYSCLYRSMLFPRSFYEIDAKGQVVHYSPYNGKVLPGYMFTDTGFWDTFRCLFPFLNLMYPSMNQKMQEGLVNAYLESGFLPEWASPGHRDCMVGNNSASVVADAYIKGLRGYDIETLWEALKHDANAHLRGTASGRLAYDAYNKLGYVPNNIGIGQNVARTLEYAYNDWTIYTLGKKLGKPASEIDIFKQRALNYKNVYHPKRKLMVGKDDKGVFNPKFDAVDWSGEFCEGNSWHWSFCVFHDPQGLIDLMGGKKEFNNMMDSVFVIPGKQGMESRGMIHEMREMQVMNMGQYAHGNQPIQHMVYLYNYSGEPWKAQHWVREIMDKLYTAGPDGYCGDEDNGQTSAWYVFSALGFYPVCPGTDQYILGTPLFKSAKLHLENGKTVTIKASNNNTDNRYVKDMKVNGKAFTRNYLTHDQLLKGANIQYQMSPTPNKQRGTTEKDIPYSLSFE
Nature of the test: Activity of Bacteroides thetaiotaomicron GH92 alpha-mannosidase GH92 alpha-mannosidase 3784 assessed as mannose release at 1 mM after 16 hrs by HPLC relative to untreated control after 16 hrs by HPLC.

Test [3] has as its target T3, Alpha-1,2-mannosidase (BT_1769) (Bacteroides thetaiotaomicron) (UniProt Q8A6V7).
T3 sequence (whole entry): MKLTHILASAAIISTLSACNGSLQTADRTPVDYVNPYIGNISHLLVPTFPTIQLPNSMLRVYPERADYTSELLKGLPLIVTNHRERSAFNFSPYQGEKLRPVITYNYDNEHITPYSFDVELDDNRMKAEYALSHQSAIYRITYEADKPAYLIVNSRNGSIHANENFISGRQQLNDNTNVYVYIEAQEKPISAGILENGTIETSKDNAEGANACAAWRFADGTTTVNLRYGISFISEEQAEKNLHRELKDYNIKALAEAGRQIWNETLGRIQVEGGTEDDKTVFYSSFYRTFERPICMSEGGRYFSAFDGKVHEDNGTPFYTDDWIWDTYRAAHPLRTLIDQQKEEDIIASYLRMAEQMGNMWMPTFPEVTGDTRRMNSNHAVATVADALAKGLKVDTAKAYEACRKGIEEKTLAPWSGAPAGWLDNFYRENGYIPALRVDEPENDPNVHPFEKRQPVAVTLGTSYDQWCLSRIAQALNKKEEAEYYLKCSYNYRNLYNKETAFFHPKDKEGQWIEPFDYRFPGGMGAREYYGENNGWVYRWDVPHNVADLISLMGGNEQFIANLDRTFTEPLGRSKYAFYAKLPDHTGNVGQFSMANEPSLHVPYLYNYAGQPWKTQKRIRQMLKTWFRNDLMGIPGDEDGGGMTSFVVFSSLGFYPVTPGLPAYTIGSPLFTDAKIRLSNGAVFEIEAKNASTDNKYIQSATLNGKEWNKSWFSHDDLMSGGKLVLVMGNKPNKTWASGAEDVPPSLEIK
As to the kind of experiment: Activity of Bacteroides thetaiotaomicron GH92 alpha-mannosidase GH92 alpha-mannosidase 1769 assessed as mannose release at 1 mM after 16 hrs by HPLC relative to untreated control after 16 hrs by HPLC.

In the case of `OC[C@H]1O[C@H](O[C@@H]2[C@H](O)[C@@H](O)O[C@H](CO)[C@H]2O)[C@@H](O)[C@@H](O)[C@@H]1O`, the result in test [1] was inactive. The Activity in test [2] was 5.6%.
With `OC[C@H]1O[C@H](O[C@H]2[C@H](O)[C@H](O)[C@@H](O)O[C@@H]2CO)[C@@H](O)[C@@H](O)[C@@H]1O`, the values for the Activity in test [3] and in test [2] were 0.026% and 7.8%, respectively. Besides, the result in test [1] was inactive.
As for `OC[C@H]1O[C@H](O[C@H]2[C@@H](O)[C@H](O)[C@@H](CO)O[C@@H]2O)[C@@H](O)[C@@H](O)[C@@H]1O`, the Activity in test [3] stood at 0.0023%; in test [2] it was 100%. In test [1], the result was inactive.
The corresponding values for `OC[C@H]1O[C@H](OC[C@H]2O[C@H](O)[C@@H](O)[C@@H](O)[C@@H]2O)[C@@H](O)[C@@H](O)[C@@H]1O` are “inactive”, “inactive” and “inactive”.

These data come from ChEMBL document CHEMBL1250451, “Mechanistic insights into a Ca2+-dependent family of alpha-mannosidases in a human gut symbiont” (Nat Chem Biol, 2010).
